# Assay results: publication PMC8197367, “Comparative Antimicrobial Activity of Hp404 Peptide and Its Analogs against Acinetobacter baumannii” (International Journal of Molecular Sciences, 2021)
# Where no end group is shown, it is not given here.
# Experiments:
# [1] = tested on: mouse red blood cells; experiment: Hemolytic assay; type: cell-based; settings: 50 μM peptide (highest tested concentration); 8% mouse red blood cells in PBS, 1 h, 37 °C, absorbance 414 nm, vs 0.1% Triton X-100
# Description: The hemolytic activity of the peptides against mouse erythrocytes was determined using red blood cells. Fresh mouse red blood cells were washed three times and resuspended in PBS to attain an 8% dilution. Peptides were serially diluted to a final concentration of 50 μM. Next, 100 µL peptide solution was added to 100 μL of mouse red blood cells, wrapped with aluminum foil and incubated for 1 h at 37 °C. The mixture was then centrifuged at 1500× g for 10 min. The supernatant was transferred into a new 96-well plate, and the absorbance of the supernatant was measured at 414 nm. As positive and negative controls, […] in mouse red blood cells were used. Hemolysis was evaluated according to the following equation:
# Hemolysis (%) = [(Abs414 nm in the peptide solution − Abs414 nm in PBS)/(Abs414 nm in 0.1% Triton X-100 − Abs414 nm in PBS)] × 100.
# [2] = tested on: P. aeruginosa ATCC 27853; experiment: MIC, broth microdilution; type: cell-based; settings: two-fold broth microdilution, NB, 2 × 10^5 CFU/mL, 37 °C, 18 h, read at 600 nm, three independent experiments
# Description: (§1) The experiment was performed in triplicate.
# [3] = tested on: K. pneumoniae KCTC 2208; experiment: MIC, broth microdilution; type: cell-based; settings: two-fold broth microdilution, NB, 2 × 10^5 CFU/mL, 37 °C, 18 h, read at 600 nm, three independent experiments
# Description: as §1
# [4] = Calcein leakage assay; settings: PC:CH:SM (1:1:1, w/w) LUVs (10 μM) loaded with calcein; excitation 480 nm, emission 520 nm; various peptide concentrations
# [5] = tested on: S. aureus ATCC 25923; experiment: MIC, broth microdilution; type: cell-based, Staphylococcus aureus; settings: two-fold broth microdilution, TSB, 2 × 10^5 CFU/mL, 37 °C, 18 h, read at 600 nm, three independent experiments
# Description: as §1
# [6] = tested on: S. aureus ATCC 29213; experiment: MIC, broth microdilution; type: cell-based, Staphylococcus aureus; settings: two-fold broth microdilution, TSB, 2 × 10^5 CFU/mL, 37 °C, 18 h, read at 600 nm, three independent experiments
# Description: as §1
# [7] = tested on: A. baumannii KCTC 2508; experiment: MIC, broth microdilution; type: cell-based, Acinetobacter baumannii; settings: two-fold broth microdilution, NB, 2 × 10^5 CFU/mL, 37 °C, 18 h, read at 600 nm, no added salt, three independent experiments
# Description: as §1
# [8] = calcein-loaded LUVs, Figure 4c
# Description: Peptide-induced membrane permeability was monitored be measuring calcein dye emission in calcein-loaded LUVs. We prepared the lipid mixture, and PC:CH (2:1, w/w) and PC:CH:SM liposomes (1:1:1, w/w) were prepared with 70 mM calcein buffer. A Sephadex G-50 column was used to separate calcein-loaded liposomes from free calcein dye. The LUVs (10 μM) were mixed with various concentrations of the peptide on a 96-well black plate. The fluorescence intensity was measured at excitation and emission wavelengths of 480 and 520 nm, respectively.
# [9] = tested on: L. monocytogenes KCTC 3710; experiment: MIC, broth microdilution; type: cell-based, Listeria monocytogenes; settings: two-fold broth microdilution, BHI, 2 × 10^5 CFU/mL, 37 °C, 18 h, read at 600 nm, three independent experiments
# Description: as §1
# [10] = tested on: S. typhimurium ATCC 14028; experiment: MIC, broth microdilution; type: cell-based, Salmonella typhimurium; settings: two-fold broth microdilution, NB, 2 × 10^5 CFU/mL, 37 °C, 18 h, read at 600 nm, three independent experiments
# Description: as §1
# [11] = tested on: HaCaT cells; settings: 50 μM peptide, 24 h, MTT assay
# Description: The cytotoxicity of the peptides against mammalian cells was calculated using the MTT assay. Human keratinocyte HaCaT cells were incubated in Dulbecco’s modified Eagle’s medium (DMEM) supplemented with 10% fetal bovine serum and 1% penicillin at 37 °C with 5% CO2. HaCaT cells were added at 2 × 10^5 cells/mL to DMEM supplemented with 10% fetal bovine serum and placed in 96-well plates. The plates were incubated overnight at 37 °C in a CO2 incubator. Peptides were serially diluted two-fold in DMEM, added to the cell cultures and incubated for 24 h at 37 °C. MTT solution (5 mg/mL) was added to each well and incubated for 1 h at 37 °C. The media was discarded, and the formazan crystals were dissolved in 100 μL dimethyl sulfoxide. The absorbance was measured using a Versa-Max microplate ELISA reader (Molecular Devices, Sunnyvale, CA, USA) at 570 and 650 nm. As a […], 0.1% Triton X-100 was used.
# [12] = tested on: B. cereus KCTC 1012; experiment: MIC, broth microdilution; type: cell-based, Bacillus cereus; settings: two-fold broth microdilution, TSB, 2 × 10^5 CFU/mL, 37 °C, 18 h, read at 600 nm, three independent experiments
# Description: as §1
# [13] = Calcein leakage assay; settings: PC:CH LUVs (10 μM) loaded with calcein; excitation 480 nm, emission 520 nm; various peptide concentrations
# [14] = tested on: E. coli ATCC 25922; experiment: MIC, broth microdilution; type: cell-based, Escherichia coli; settings: two-fold broth microdilution, LB, 2 × 10^5 CFU/mL, 37 °C, 18 h, read at 600 nm, three independent experiments
# Description: as §1
# [15] = tested on: A. baumannii KCTC 2508; settings: NB supplemented with 150 mM NaCl, triplicate
# Description: (§2) Hp1404 and its analog peptides activity against both gram-positive and gram-negative bacterial strains were tested using the broth microdilution method. Briefly, S. aureus (ATCC 25923, ATCC 29213) and B. cereus KCTC 1012 were cultured overnight at 37 °C in tryptic soy broth (TSB). P. aeruginosa ATCC 27853, K. pneumoniae KCTC 2208, A. baumannii KCTC 2508 and S. typhimurium ATCC 14028 were cultured overnight at 37 °C in nutrient broth (NB). E. coli ATCC 25922 was cultured overnight at 37 °C in luria bertani (LB). L. monocytogenes KCTC 3710 was cultured overnight at 37 °C in brain heart infusion (BHI). The cultures were diluted with fresh medium at a density of 2 × 10^5 CFU/mL. Peptides were serially diluted in sodium phosphate buffer (pH 7.2) to a final concentration of 25 μM. In a 96-well plate, 50-μL bacterial aliquots were mixed with 50 μL peptide solution. After incubation at 37 °C for 18 h, the MIC was determined using a plate reader at 600 nm. The experiment was performed in triplicate.
# To determine whether antibacterial activity was affected by the presence of salts, experiments were conducted as previously reported. We determined the MICs of NB supplemented with 150 mM NaCl. MIC assays were performed as described above. The assay was performed in triplicate.
# [16] = tested on: A. baumannii #3; experiment: microbe, parasite or virus in culture; settings: A. baumannii #3 isolated from patient; broth microdilution, 37 °C, 18 h; three independent experiments
# Excerpt: (§3) Staphylococcus aureus ATCC 25923, S. aureus ATCC 29213, P. aeruginosa ATCC 27853, Escherichia coli ATCC 25922 and Salmonella typhimurium ATCC 14028 strains were obtained from the American Type Culture Collection (ATCC, Manassas, VA, USA). Listeria monocytogenes KCTC 3710, Bacillus cereus KCTC 1012, K. pneumoniae KCTC 2208 and A. baumannii KCTC 2508 were obtained from the Korean Collection for Type Cultures (KRIBB, Daejeon, South Korea). Clinical isolates of A. baumannii strains were collected from Eulji University Hospital (Seoul, South Korea).
# as §2
# [17] = tested on: A. baumannii #4; experiment: microbe, parasite or virus in culture; settings: A. baumannii #4 isolated from patient; broth microdilution, 37 °C, 18 h; three independent experiments
# Excerpt: as §3, §2
# [18] = tested on: A. baumannii #2; experiment: microbe, parasite or virus in culture; settings: A. baumannii #2 isolated from patient; broth microdilution, 37 °C, 18 h; three independent experiments
# Excerpt: as §3, §2
# [19] = tested on: A. baumannii 907233; experiment: microbe, parasite or virus in culture; settings: A. baumannii 907233 isolated from patient; broth microdilution, 37 °C, 18 h; three independent experiments
# Excerpt: as §3, §2
# [20] = tested on: A. baumannii 409081; experiment: microbe, parasite or virus in culture; settings: A. baumannii 409081 isolated from patient; broth microdilution, 37 °C, 18 h; three independent experiments
# Excerpt: as §3, §2
# [21] = tested on: A. baumannii 719705; experiment: microbe, parasite or virus in culture; settings: A. baumannii 719705 isolated from patient; broth microdilution, 37 °C, 18 h; three independent experiments
# Excerpt: as §3, §2
Substance,hemolytic activity [1],MIC [2],MIC [3],MIC [5],MIC [6],MIC [7],MIC [9],MIC [10],Cell viability [11],MIC [12],MIC [14],MIC in the presence of 150 mM NaCl [15],MIC [16],MIC [17],MIC [18],MIC [19],MIC [20],MIC [21],further results
GILGKLWEGVKSIA-NH2 [Hp1404-A],no hemolytic activity,>25 µM,>25 µM,12.5 µM,>25 µM,25 µM,>25 µM,25 µM,100%,>25 µM,>25 µM,–,–,–,–,–,–,–,calcein release (fluorescence intensity) [4]: did not release calcein; calcein leakage fluorescence (bioimaging) [8]: no fluorescence was observed; calcein release (fluorescence intensity) [13]: did not release calcein
"GILGKLWEGVKSIF-NH2 [Hp1404, reference compound]",49.2%,12.5 µM,12.5 µM,3.13 µM,6.25 µM,3.13 µM,3.13 µM,3.13 µM,72.3%,12.5 µM,12.5 µM,6.25 µM,3.13 µM,3.13 µM,3.13 µM,3.13 µM,3.13 µM,3.13 µM,–
GILGKLWEGVKSII-NH2 [Hp1404-I],–,25 µM,25 µM,3.13 µM,12.5 µM,3.13 µM,6.25 µM,3.13 µM,100%,25 µM,12.5 µM,12.5 µM,3.13 µM,3.13 µM,3.13 µM,3.13 µM,3.13 µM,6.25 µM,–
